Results: patent US7183306B2, “Pyrazole derivatives” (Astellas Pharma Inc., priority 2002, dated 2007)

Tested on: arthritic rats (adjuvant arthritis)
Experiment: Analgesic activity: effect on adjuvant arthritis in rats (Randall-Selitto pain threshold)
Format: in vivo, Lewis rats
Details: Rattus norvegicus, single dose, pain threshold of left hind paw 2 hrs after administration, threshold pressure of treated vs non-treated rats, ratio of 1.5 considered effective, read-out: The coefficient of analgesic

Compound	response vs control in vivo at 3.2 mg/kg [%]
COc1ccc(-n2nc(C(F)(F)F)cc2-c2ccc(OCCN)cc2)cc1 [Example 267]	≥ 150

Tested on: not given
Experiment: not given
Details: not given

Compound	melting point [°C]
COc1ccc(-n2nc(OC)cc2-c2ccc(OCCNC(N)=O)cc2)cc1	108 to 111
COc1ccc(-n2nc(C(F)(F)F)cc2-c2ccc(CCS(N)(=O)=O)cc2)cc1	131 to 132
COc1ccc(-n2nc(C(F)(F)F)cc2-c2ccc(CCNC(C)=O)cc2)cc1	79 to 80
COc1ccc(-n2nc(C#N)cc2-c2ccc(OCCO)cc2)cc1	91 to 92
COc1ccc(-n2nc(OC)cc2-c2ccc(OCCNC(N)=O)cc2)cn1	192.6 to 192.7
COc1ccc(-n2nc(OCC(=O)N(C)C)cc2-c2ccc(OCCNC(N)=O)cc2)cc1	223 to 227
COc1ccc(-n2nc(OC(C)C)cc2-c2ccc(OCCO)cc2)cn1	74 to 75
COc1ccc(-n2nc(C(F)(F)F)cc2-c2ccc(CCNC(C)=O)cc2)cn1	97 to 98
CCOCCOc1cc(-c2ccc(OCCNS(C)(=O)=O)cc2)n(-c2ccc(OC)cc2)n1	116.3 to 116.4
CCOc1cc(-c2ccc(OCCNC(N)=O)cc2)n(-c2ccc(OC)cc2)n1	154.2 to 154.4
COc1ccc(-n2nc(C(F)(F)F)cc2-c2ccc(CCNC(N)=O)cc2)cc1	157 to 158
COc1ccc(-n2nc(C(F)(F)F)cc2-c2ccc(OCC(N)=O)cc2)cc1	168 to 169
COc1ccc(-n2nc(OCC(F)(F)F)cc2-c2ccc(OCCNC(N)=O)cc2)cn1	134.8 to 134.9
COc1ccc(-n2nc(C3CC3)cc2-c2ccc(OCCNS(C)(=O)=O)cc2)cc1	166 to 168
COc1ccc(-n2nc(C(F)(F)F)cc2-c2ccc(CCCS(C)(=O)=O)cc2)cn1	121 to 122
COc1ccc(-n2nc(OCC(=O)N(C)C)cc2-c2ccc(OCCO)cc2)cc1	106.6 to 107.1
COc1ccc(-n2nc(C3CC3)cc2-c2ccc(OCCNS(C)(=O)=O)cc2)cn1	95 to 97
COc1ccc(-n2nc(C(=O)C(C)C)cc2-c2ccc(OCCN)cc2)cc1.Cl	129 to 142
COc1ccc(-n2nc(OC(C)C)cc2-c2ccc(OCCNC(N)=O)cc2)cc1	139 to 140
COc1ccc(-n2nc(Cl)cc2-c2ccc(OCCNS(C)(=O)=O)cc2)cc1	117 to 119
COc1ccc(-n2nc(S(C)(=O)=O)cc2-c2ccc(OCCN)cc2)cc1	104 to 106
COc1ccc(-n2nc(OC)cc2-c2ccc(CNC(N)=O)cc2)cc1	206 to 260.9
COc1ccc(-n2nc(Cl)cc2-c2ccc(CNS(C)(=O)=O)cc2)cc1	68.3 to 69.3
COc1ccc(-n2nc(C(=O)C(C)C)cc2-c2ccc(OCCNC(N)=O)cc2)cc1	144 to 145

Compound	melting point [°C]
COc1ccc(-n2nc(C(=O)N3CCCCC3)cc2-c2ccc(CNS(C)(=O)=O)cc2)cc1	179.3 to 179.6
COc1ccc(-n2nc(C(=O)N3CCCCC3)cc2-c2ccc(CNC(N)=O)cc2)cn1	178.9
COc1ccc(-n2nc(OC)cc2-c2ccc(OCCNS(C)(=O)=O)cc2)cn1	116 to 117.5
CCOc1cc(-c2ccc(OCCNC(N)=O)cc2)n(-c2ccc(OC)nc2)n1	133 to 138
COc1ccc(-n2nc(SC)cc2-c2ccc(OCCNC(N)=O)cc2)cc1	141.2 to 142.2
COc1ccc(-n2nc(OC(C)C)cc2-c2ccc(OCCNC(N)=O)cc2)cn1	120
COc1ccc(-n2nc(C(F)(F)F)cc2-c2ccc(CCNS(N)(=O)=O)cc2)cc1	127 to 128
COc1ccc(-n2nc(C(=O)C(C)C)cc2-c2ccc(OCCO)cc2)cn1	108 to 109
COc1ccc(-n2nc(N(C)C(=O)N(C)C)cc2-c2ccc(OCCNC(N)=O)cc2)cc1	158.6 to 159
COc1ccc(-n2nc(C3CC3)cc2-c2ccc(OCCNC(N)=O)cc2)cn1	94 to 96
COc1ccc(-n2nc(C(F)(F)F)cc2-c2ccc(CCO)cc2)cn1	89 to 92
CSc1ccc(-n2nc(C(F)F)cc2-c2ccc(OCCNS(C)(=O)=O)cc2)cc1	122.7 to 122.8
COc1ccc(-n2nc(C(F)(F)F)cc2-c2ccc(CCC[S+](C)[O-])cc2)cn1 (stereo not shown)	92 to 93
COCCOc1cc(-c2ccc(OCCNS(C)(=O)=O)cc2)n(-c2ccc(OC)cc2)n1	94.5 to 94.7
COc1ccc(-n2nc(C(=O)N3CCCCC3)cc2-c2ccc(OCCNC(N)=O)cc2)cn1	164 to 167
COc1ccc(-n2nc(C(F)F)cc2-c2ccc(CNS(C)(=O)=O)cc2)cn1	125.7 to 126.1
COc1ccc(-n2nc(OCC(C)C)cc2-c2ccc(OCCNS(C)(=O)=O)cc2)cc1	164.3 to 165.2
COc1ccc(-n2nc(OC(C)C)cc2-c2ccc(OCCNS(C)(=O)=O)cc2)cn1	121 to 121.6
COc1ccc(-n2nc(C(=O)C(C)C)cc2-c2ccc(OCCNC(N)=O)cc2)cn1	145 to 147
COc1ccc(-n2nc(C3CC3)cc2-c2ccc(OCCNS(N)(=O)=O)cc2)cc1	142 to 143
CO/N=C(\C)c1cc(-c2ccc(CCO)cc2)n(-c2ccc(OC)cc2)n1	82 to 86
COc1ccc(-n2nc(C3CC3)cc2-c2ccc(OCCO)cc2)cc1	142 to 144
CNC(=O)NCCc1ccc(-c2cc(C(F)(F)F)nn2-c2ccc(OC)nc2)cc1	149
COc1ccc(-n2nc(C(F)F)cc2-c2ccc(OCCNC(N)=O)cc2)cn1 [241]	139 to 140

Compound	melting point [°C]
COc1ccc(-n2nc(-c3nc(C)no3)cc2-c2ccc(CCO)cc2)cc1	148 to 150
COc1ccc(-n2nc(C#N)cc2-c2ccc(OCCN)cc2)cc1.Cl	186 to 189
COc1ccc(-n2nc(C(=O)C(C)C)cc2-c2ccc(CNS(C)(=O)=O)cc2)cc1	155.8 to 155.9
COc1ccc(-n2nc(C(=O)C(C)C)cc2-c2ccc(OCCN)cc2)cn1.Cl.Cl	156 to 161
COc1ccc(-n2nc(C(=O)N3CCCCC3)cc2-c2ccc(CNS(C)(=O)=O)cc2)cn1	182.6 to 182.9
COc1ccc(-n2nc(C(=O)N3CCCCC3)cc2-c2ccc(OCCNS(C)(=O)=O)cc2)cn1	158.8 to 159.1
CCOCCOc1cc(-c2ccc(OCCNC(N)=O)cc2)n(-c2ccc(OC)cc2)n1	124.1 to 124.2
COc1ccc(-n2nc(Cl)cc2-c2ccc(CNC(N)=O)cc2)cn1	111 to 115
COc1ccc(-n2nc(C(F)(F)C(F)(F)F)cc2-c2ccc(CCO)cc2)cc1	97 to 98
COc1ccc(-n2nc(C(C)C)cc2-c2ccc(CNS(C)(=O)=O)cc2)cc1	130.9 to 131
COc1ccc(-n2nc(C(=O)C(C)C)cc2-c2ccc(OCCNS(C)(=O)=O)cc2)cc1	155
COc1ccc(-n2nc(C(=O)C(C)C)cc2-c2ccc(OCCO)cc2)cc1	95 to 96
COc1ccc(-n2nc(OCC(F)F)cc2-c2ccc(OCCNS(C)(=O)=O)cc2)cc1	145 to 145.1
COc1ccc(-n2nc(C(F)(F)F)cc2-c2ccc(CCNS(N)(=O)=O)cc2)cn1	114 to 115
CCOc1cc(-c2ccc(OCCO)cc2)n(-c2ccc(OC)nc2)n1	81 to 82
COc1ccc(-n2nc(Cl)cc2-c2ccc(OCCNS(C)(=O)=O)cc2)cn1	112 to 114
CCOc1cc(-c2ccc(OCCNS(C)(=O)=O)cc2)n(-c2ccc(OC)cc2)n1	146 to 147
COc1ccc(-n2nc(C(C)C)cc2-c2ccc(CNC(N)=O)cc2)cn1	139 to 144
COc1ccc(-n2nc(SC)cc2-c2ccc(OCCNS(C)(=O)=O)cc2)cc1	165 to 166
COc1ccc(-n2nc(S(C)(=O)=O)cc2-c2ccc(OCCNC(N)=O)cc2)cc1	165 to 167
COc1ccc(-n2nc(C3CC3)cc2-c2ccc(CCO)cc2)cc1	111 to 112
CCOc1cc(-c2ccc(OCCO)cc2)n(-c2ccc(OC)cc2)n1	67.7 to 69.2
CCN(C)C(=O)c1cc(-c2ccc(OCCNS(C)(=O)=O)cc2)n(-c2ccc(OC)nc2)n1	110 to 111
COc1ccc(-n2nc(OC)cc2-c2ccc(OCCNC(N)=S)cc2)cc1	141.6 to 142.3
